Results published in US20090312575A1, “Process For Preparing A Benzoylbenzeneacetamide Derivative” (Medichem, S.A., priority 2008, published 2009).
In brackets after ≈: the same amount, converted by molar mass. Read-outs that look alike come from different tables or passages of the source.

How the values were obtained:
[1] = solubility profile at room temperature in organic solvents; assay type: physicochemical
Text: Optionally, water can be added to the suspension earlier than the filtration. Further, this filtration step introduces an additional purification step.

[2] = polymorphic form after one year storage (XRD and IR); assay type: physicochemical; conditions: one year at room temperature and ambient atmosphere conditions
Text: X-ray Powder Diffraction (XRD). The XRD diffractograms were obtained using a RX SIEMENS D5000 diffractometer with a vertical goniometer, a copper anodic tube, and radiation CuKα, λ=1, 54056 Á.
Infrared Spectra (IR). Fourier transform IR spectra were acquired on a Thermo Nicolet Nexus spectrometer, and polymorphs were characterized in potassium bromide pellets.
Analytical data: XRD: Form A, see FIG. 1; IR: see FIG. 2; DSC: see FIG. 7. Analytical data of the compound after one year at room temperature and ambient atmosphere conditions (XRD and IR): Form A.
Analytical data: XRD: Form B, see FIG. 3; DSC: see FIG. 8. Analytical data of the compound after one year at room temperature and ambient atmosphere conditions (XRD and IR): Form B.

| solubility ([1]; 1:1 mixture of tetrahydrofuran/water, aqueous with cosolvent or surfactant or cyclodextrin, 1:1 tetrahydrofuran/water, room temperature, read-out: solubility in a 1:1 mixture of tetrahydrofuran/water) [mg/mL] | solubility ([1]; tetrahydrofuran, organic solvent or mixture, tetrahydrofuran, room temperature, read-out: solubility in tetrahydrofuran) [mg/mL] | crystalline form after one year (XRD and IR) ([2]; listed as Example 4) | solubility ([1]; acetonitrile, organic solvent or mixture, acetonitrile (reaction mixture solvent), read-out: solubility in acetonitrile) [mg/mL] | solubility in tetrahydrofuran ([1]; tetrahydrofuran, room temperature) | crystalline form after one year (XRD and IR) ([2]; listed as Example 5) | Compound |
| --- | --- | --- | --- | --- | --- | --- |
| ~50 (≈ 166 mM) | ~50 (≈ 166 mM) | Form A | – | – | – | CSC(C(N)=O)c1cccc(C(=O)c2ccccc2)c1N (stereo not drawn) [compound (IV) Form A, 2-amino-3-benzoyl-α-(methylthio)benzeneacetamide] |
| – | – | – | ~5.9 (≈ 19.6 mM) | approx. 33 mg/mL | Form B | CSC(C(N)=O)c1cccc(C(=O)c2ccccc2)c1N (stereo not drawn) [compound (IV) Form B, 2-amino-3-benzoyl-α-(methylthio)benzeneacetamide] |
